The values below are quoted from earlier work in patent publication US8377476B2, “Butenafine hydrochloride-containing aqueous patch” (Teikoku Seiyaku Co., Ltd., priority 2008, dated 2013).

Where a name gives a salt, the structure may show the parent alone. Read-outs that look alike come from different tables or passages of the source.

For `CN(Cc1ccc(C(C)(C)C)cc1)Cc1cccc2ccccc12` [butenafine hydrochloride], the Water-solubility entry is “low water-solubility” (hydrochloride) and “extremely poor water-solubility” (listed as Butenafine hydrochloride).
